Broadly, the IC50 is the concentration that gives 50% inhibition.

Among the data in ChEMBL document CHEMBL3774325, “Design, synthesis, and structure-activity relationship study of glycyrrhetinic acid derivatives as potent and selective inhibitors against human carboxylesterase 2” (Eur J Med Chem, 2016) are IC50 and Ratio IC50 values, retold here.

Assay [1] addresses T1, Liver carboxylesterase 1 (Homo sapiens, UniProt P23141).
T1 sequence (P23141 whole entry): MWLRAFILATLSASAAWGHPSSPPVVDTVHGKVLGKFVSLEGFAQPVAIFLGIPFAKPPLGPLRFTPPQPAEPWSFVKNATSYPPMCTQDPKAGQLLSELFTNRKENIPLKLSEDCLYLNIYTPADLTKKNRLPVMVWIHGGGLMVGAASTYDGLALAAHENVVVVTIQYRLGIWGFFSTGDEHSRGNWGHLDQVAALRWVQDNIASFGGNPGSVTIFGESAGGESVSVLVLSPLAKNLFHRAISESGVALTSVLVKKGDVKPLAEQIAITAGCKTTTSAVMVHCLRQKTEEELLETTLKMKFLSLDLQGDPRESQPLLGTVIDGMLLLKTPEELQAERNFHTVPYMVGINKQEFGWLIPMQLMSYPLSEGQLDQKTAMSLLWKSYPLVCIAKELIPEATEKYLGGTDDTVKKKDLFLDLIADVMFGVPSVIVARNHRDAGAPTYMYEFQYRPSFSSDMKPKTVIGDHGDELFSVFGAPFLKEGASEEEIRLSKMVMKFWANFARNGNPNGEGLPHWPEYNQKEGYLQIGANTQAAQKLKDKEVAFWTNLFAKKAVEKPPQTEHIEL
The assay is described as follows: Inhibition of CE1 in human liver microsomes using 2-(2-Benzoyl-3-methoxyphenyl) benzothiazole as substrate preincubated for 10 mins followed by substrate addition measured after 30 mins by LC-UV analysis. In general terms: Liver microsomes are vesicles of endoplasmic reticulum, rich in cytochrome P450 enzymes.

The species named for assay [2] is Homo sapiens. The assay is described as follows: Selectivity ratio of IC50 for CE1 in human liver microsomes to IC50 for CE2 in human liver microsomes.
For assay [3], the target named is T2, Cocaine esterase (Homo sapiens, UniProt O00748).
T2 sequence (O00748 whole entry): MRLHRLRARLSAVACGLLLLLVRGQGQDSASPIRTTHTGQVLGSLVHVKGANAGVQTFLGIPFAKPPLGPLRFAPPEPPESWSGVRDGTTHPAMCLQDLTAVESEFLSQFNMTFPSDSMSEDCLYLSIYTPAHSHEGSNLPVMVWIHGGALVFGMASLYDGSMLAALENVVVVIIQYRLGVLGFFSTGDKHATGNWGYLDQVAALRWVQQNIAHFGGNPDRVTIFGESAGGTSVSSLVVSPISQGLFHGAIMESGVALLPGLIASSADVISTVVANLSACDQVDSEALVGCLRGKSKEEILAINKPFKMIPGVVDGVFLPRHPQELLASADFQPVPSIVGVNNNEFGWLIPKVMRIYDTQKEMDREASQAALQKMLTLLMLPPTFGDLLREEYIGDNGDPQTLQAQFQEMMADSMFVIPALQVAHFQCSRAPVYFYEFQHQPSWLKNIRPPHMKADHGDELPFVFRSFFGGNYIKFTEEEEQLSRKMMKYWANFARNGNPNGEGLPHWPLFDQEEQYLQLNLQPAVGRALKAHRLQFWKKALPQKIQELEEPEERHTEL
The assay is described as follows: Inhibition of CE2 in human liver microsomes using fluorescein diacetate as substrate preincubated for 10 mins followed by substrate addition measured after 30 mins by LC-UV analysis.

For the compound `CC(=O)O[C@H]1CC[C@]2(C)[C@H]3C(=O)C=C4[C@@H]5C[C@@](C)(C(=O)O)CC[C@]5(C)CC[C@@]4(C)[C@]3(C)CC[C@H]2C1(C)C` [ACETOXOLONE], the 50% inhibitory concentration (IC50) in assay [1] turned out to be 49.9 µM.

Consider `COc1cc2c(cc1CC=C(C)C)C(=O)C[C@@H](c1ccc(O)cc1)O2` [BAVACHININ A], for which the Ratio IC50 in assay [2] came out at 0.8. The IC50 in assay [3] turned out to be 4.31 µM; in assay [1], 3.47 µM.

As for `CCOC(=O)[C@@]1(C)CC[C@]2(C)CC[C@]3(C)C(=CC(=O)[C@@H]4[C@@]5(C)CC[C@H](OC(=O)CCC(=O)O)C(C)(C)[C@@H]5CC[C@]43C)[C@@H]2C1`, the Ratio IC50 in assay [2] amounted to 152. The half-inhibitory concentration (IC50) is 0.66 µM in assay [3] and greater than 100 µM in assay [1].

Regarding `CCOC(=O)[C@@]1(C)CC[C@]2(C)CC[C@]3(C)C(=CC[C@@H]4[C@@]5(C)CC[C@H](OC(=O)CCC(=O)O)C(C)(C)[C@@H]5CC[C@]43C)[C@@H]2C1`, the IC50 in assay [1] was 20.4 µM. In other words, the double-digit micromolar range.

On to `CCOC(=O)[C@@]1(C)CC[C@]2(C)CC[C@]3(C)C(=CC(=O)[C@@H]4[C@@]5(C)CC[C@H](O)C(C)(C)[C@@H]5CC[C@]43C)[C@@H]2C1`, for which the Ratio IC50 in assay [2] was 4.6. In addition, the IC50 in assay [3] amounted to 5.7 µM; in assay [1], 26.3 µM.

Consider `CN(C)CCOC(=O)[C@@]1(C)CC[C@]2(C)CC[C@]3(C)C(=CC(=O)[C@@H]4[C@@]5(C)CC[C@H](O)C(C)(C)[C@@H]5CC[C@]43C)[C@@H]2C1`, for which the Ratio IC50 in assay [2] amounted to 2.3. Besides, the values for the IC50 in assay [3] and in assay [1] were 3.95 µM and 9.13 µM, respectively.

In turn, `CC1(C)C(=O)CC[C@]2(C)[C@H]3CC=C4[C@@H]5C[C@@](C)(C(=O)O)CC[C@]5(C)CC[C@@]4(C)[C@]3(C)CC[C@@H]12` gave an IC50 in assay [1] of 23.6 µM. This lies in the double-digit micromolar range.

For the compound `CC(=O)O[C@H]1CC[C@]2(C)[C@H]3C(=O)C=C4[C@@H]5C[C@@](C)(C(N)=O)CC[C@]5(C)CC[C@@]4(C)[C@]3(C)CC[C@H]2C1(C)C`, in assay [2], the Ratio IC50 amounted to 1.5. Further, the concentration for half-maximal inhibition (IC50) is 7.36 µM in assay [3] and 11 µM in assay [1].

Regarding `CC1(C)[C@@H](O)CC[C@]2(C)[C@H]3C(=O)C=C4[C@@H]5C[C@@](C)(C(=O)O)CC[C@]5(C)CC[C@@]4(C)[C@]3(C)CC[C@@H]12` [ENOXOLONE], the midpoint of inhibition in assay [1], the IC50, lay at 21 µM.

On to `COC(=O)[C@@]1(C)CC[C@]2(C)CC[C@]3(C)C(=CC(=O)[C@@H]4[C@@]5(C)CC[C@H](O)C(C)(C)[C@@H]5CC[C@]43C)[C@@H]2C1`, for which the Ratio IC50 in assay [2] was determined as 4. For the same compound, the IC50 in assay [3] is 5.61 µM; in assay [1], 22.4 µM.

For the compound `CC(=O)O[C@H]1CC[C@]2(C)[C@H]3C(=O)C=C4[C@@H]5C[C@@](C)(C(=O)OCCN(C)C)CC[C@]5(C)CC[C@@]4(C)[C@]3(C)CC[C@H]2C1(C)C`, the Ratio IC50 in assay [2] amounted to 3.6. In addition, the values for the 50% inhibitory concentration (IC50) in assay [3] and in assay [1] were 3.42 µM and 12.3 µM, respectively.

For the compound `CC1(C)[C@@H](O)CC[C@]2(C)[C@H]3C(=O)C=C4[C@@H]5C[C@@](C)(C(N)=O)CC[C@]5(C)CC[C@@]4(C)[C@]3(C)CC[C@@H]12`, in assay [2], the Ratio IC50 came to 0.5. The IC50 in assay [3] was 14.2 µM; in assay [1], 6.99 µM.

As to `CC1(C)C(=O)CC[C@]2(C)[C@H]3C(=O)C=C4[C@@H]5C[C@@](C)(C(=O)O)CC[C@]5(C)CC[C@@]4(C)[C@]3(C)CC[C@@H]12`, the 50% inhibitory concentration (IC50) in assay [3] and in assay [1] was greater than 100 µM throughout.

For the compound `CC(=O)O[C@H]1CC[C@]2(C)[C@H]3C(=O)C=C4[C@@H]5C[C@@](C)(C#N)CC[C@]5(C)CC[C@@]4(C)[C@]3(C)CC[C@H]2C1(C)C`, the IC50 in assay [3] and in assay [1] was greater than 100 µM throughout.

Regarding `CCOC(=O)[C@@]1(C)CC[C@]2(C)CC[C@]3(C)C(=CC[C@@H]4[C@@]5(C)CC[C@H](O)C(C)(C)[C@@H]5CC[C@]43C)[C@@H]2C1`, the Ratio IC50 in assay [2] was found to be 6.3. Besides, the IC50 in assay [3] is 3.99 µM; in assay [1] it was 25.1 µM.

For the compound `O=[N+]([O-])c1ccc(OP(=O)(O)Oc2ccc([N+](=O)[O-])cc2)cc1`, in assay [1], the half-inhibitory concentration (IC50) is 0.14 µM.

In assay [1], `CC1(C)[C@@H](O)CC[C@]2(C)[C@H]3CC=C4[C@@H]5C[C@@](C)(C(=O)O)CC[C@]5(C)CC[C@@]4(C)[C@]3(C)CC[C@@H]12` came in with an IC50 of 10.5 µM.
